In ChEMBL document CHEMBL5131499, “Design, synthesis and glycosidase inhibition of C-4 branched LAB and DAB derivatives” (Eur J Med Chem, 2022) one finds IC50 and inhibition data, which are given here for five compounds.

The structures appear in SMILES notation.

In assay [1] the target is T1, Sucrase-isomaltase, intestinal (Rattus norvegicus, UniProt P23739). Nature of the assay: Inhibition of rat intestinal sucrase assessed as release of p-nitrophenol using p-nitrophenyl glycoside as substrate by spectrometric assay.
T1 sequence (P23739 1-1013 limits assumed): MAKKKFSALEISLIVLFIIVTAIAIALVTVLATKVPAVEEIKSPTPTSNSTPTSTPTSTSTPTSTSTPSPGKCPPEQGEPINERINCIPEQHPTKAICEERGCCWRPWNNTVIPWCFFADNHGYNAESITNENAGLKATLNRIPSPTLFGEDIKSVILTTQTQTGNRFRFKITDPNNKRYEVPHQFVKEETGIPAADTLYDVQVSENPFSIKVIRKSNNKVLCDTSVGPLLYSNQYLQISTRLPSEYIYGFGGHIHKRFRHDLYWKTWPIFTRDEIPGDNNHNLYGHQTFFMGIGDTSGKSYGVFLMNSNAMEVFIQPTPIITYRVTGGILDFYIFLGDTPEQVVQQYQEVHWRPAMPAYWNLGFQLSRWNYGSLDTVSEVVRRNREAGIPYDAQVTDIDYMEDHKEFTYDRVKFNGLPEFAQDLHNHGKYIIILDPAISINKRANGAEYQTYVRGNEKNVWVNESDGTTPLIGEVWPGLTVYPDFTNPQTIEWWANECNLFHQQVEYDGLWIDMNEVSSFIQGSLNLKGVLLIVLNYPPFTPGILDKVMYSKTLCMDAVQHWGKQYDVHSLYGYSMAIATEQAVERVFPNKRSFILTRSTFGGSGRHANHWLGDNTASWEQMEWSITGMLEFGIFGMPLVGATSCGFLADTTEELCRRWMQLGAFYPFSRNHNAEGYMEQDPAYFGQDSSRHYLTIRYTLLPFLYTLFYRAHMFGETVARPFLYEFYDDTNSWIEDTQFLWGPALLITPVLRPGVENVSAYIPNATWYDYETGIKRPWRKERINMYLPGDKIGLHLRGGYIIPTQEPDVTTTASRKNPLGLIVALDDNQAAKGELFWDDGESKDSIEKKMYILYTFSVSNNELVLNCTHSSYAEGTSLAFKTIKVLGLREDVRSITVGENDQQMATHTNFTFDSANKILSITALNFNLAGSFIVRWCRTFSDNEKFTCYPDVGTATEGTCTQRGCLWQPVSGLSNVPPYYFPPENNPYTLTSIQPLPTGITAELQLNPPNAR
T1 sequence (P23739 1014-1841 limits assumed): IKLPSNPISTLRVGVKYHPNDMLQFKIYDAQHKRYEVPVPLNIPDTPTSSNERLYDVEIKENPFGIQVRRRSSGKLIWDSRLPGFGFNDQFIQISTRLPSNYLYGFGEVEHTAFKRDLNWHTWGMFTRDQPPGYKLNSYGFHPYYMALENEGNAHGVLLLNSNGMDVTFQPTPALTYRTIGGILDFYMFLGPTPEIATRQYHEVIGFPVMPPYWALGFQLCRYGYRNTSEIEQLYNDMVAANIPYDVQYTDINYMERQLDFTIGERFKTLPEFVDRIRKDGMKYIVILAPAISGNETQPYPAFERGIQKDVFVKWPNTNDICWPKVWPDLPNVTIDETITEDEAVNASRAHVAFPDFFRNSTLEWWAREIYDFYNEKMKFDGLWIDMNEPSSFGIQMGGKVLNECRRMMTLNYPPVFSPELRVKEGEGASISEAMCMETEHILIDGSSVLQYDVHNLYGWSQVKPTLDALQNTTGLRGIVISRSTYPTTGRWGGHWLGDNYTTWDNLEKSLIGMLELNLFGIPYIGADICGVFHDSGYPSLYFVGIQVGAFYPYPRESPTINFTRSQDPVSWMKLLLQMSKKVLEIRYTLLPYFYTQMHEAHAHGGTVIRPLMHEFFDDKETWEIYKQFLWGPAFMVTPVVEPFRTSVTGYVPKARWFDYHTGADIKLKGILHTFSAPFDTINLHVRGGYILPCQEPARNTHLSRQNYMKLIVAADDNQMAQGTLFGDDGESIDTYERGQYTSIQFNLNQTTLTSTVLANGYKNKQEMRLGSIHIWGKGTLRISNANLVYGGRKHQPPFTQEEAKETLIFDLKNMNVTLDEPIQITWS
The test system of another assay is Prunus dulcis. The assay is described as follows: Inhibition of almond beta-glucosidase assessed as release of p-nitrophenol at 1000 uM using p-nitrophenyl glycoside as substrate by spectrometric assay relative to control.
Assay [2] in a line: Inhibition of bovine liver beta-glucosidase assessed as release of p-nitrophenol using p-nitrophenyl glycoside as substrate by spectrometric assay. Further details: species or system Bos taurus.
For assay [3], the target named is Lysosomal alpha-glucosidase (Homo sapiens, UniProt P10253). Nature of the assay: Inhibition of human lysosomal alpha glucosidase assessed as release of p-nitrophenol using p-nitrophenyl glycoside as substrate by spectrometric assay.
In assay [4] the target is T1, Sucrase-isomaltase, intestinal. Nature of the assay: Inhibition of rat intestinal isomaltase assessed as release of p-nitrophenol using p-nitrophenyl glycoside as substrate by spectrometric assay.
The species entered for another assay is Bos taurus. The assay is described as follows: Inhibition of bovine liver beta-glucosidase assessed as release of p-nitrophenol at 1000 uM using p-nitrophenyl glycoside as substrate by spectrometric assay relative to control.

For orientation: IC50 means the concentration needed to halve the response being measured. Usually inhibition stands for how much of the control response was suppressed.

Regarding `C[C@@]1(CO)NC[C@H](O)[C@H]1O`, the IC50 in assay [1] worked out at 0.64 µM; in assay [2], 183 µM; in assay [3], 5.6 µM; in assay [4], 2 µM. In addition, the inhibition with Prunus dulcis was 6.2%.
`OC[C@]1(c2ccccc2)NC[C@H](O)[C@H]1O`: the IC50 turned out to be 0.48 µM in assay [1], 71 µM in assay [2], 0.63 µM in assay [3] and 32 µM in assay [4]. Further, the inhibition with Prunus dulcis worked out at 0.9%.
In the same order, the values of `CCCCCCCCC[C@@]1(CO)NC[C@H](O)[C@H]1O` are 0.68 µM, 430 µM, 3.7 µM, 113 µM and 0%.
As to `COc1ccc([C@@]2(CO)NC[C@H](O)[C@H]2O)cc1`, the half-inhibitory concentration (IC50) came to 0.33 µM in assay [1], 601 µM in assay [3] and 650 µM in assay [4]. The inhibition was 43% in the assay filed under Bos taurus and 7.1% in the assay with Prunus dulcis.
For `CCCC[C@@]1(CO)NC[C@H](O)[C@H]1O`, the IC50 in assay [1] amounted to 0.23 µM; in assay [2] it was 226 µM; in assay [3], 2.4 µM; in assay [4], 13 µM. Moreover, the inhibition in the assay on Prunus dulcis was found to be 0.9%.
